Experimental findings from US20220388964A1 (HiberCell, Inc., priority 2019, published 2022) are described below.

As usually defined, the IC50 is the midpoint of a concentration-inhibition curve.

The assay has as its target GCN2 (Homo sapiens, UniProt Q9P2K8). Description: TR-FRET biochemical assay for inhibition of GCN2 (Example 106, for Example 1-4BB). Background: Time-resolved FRET reads energy transfer from a long-lived donor to a nearby acceptor.

Sequence of GCN2 (Q9P2K8 whole entry): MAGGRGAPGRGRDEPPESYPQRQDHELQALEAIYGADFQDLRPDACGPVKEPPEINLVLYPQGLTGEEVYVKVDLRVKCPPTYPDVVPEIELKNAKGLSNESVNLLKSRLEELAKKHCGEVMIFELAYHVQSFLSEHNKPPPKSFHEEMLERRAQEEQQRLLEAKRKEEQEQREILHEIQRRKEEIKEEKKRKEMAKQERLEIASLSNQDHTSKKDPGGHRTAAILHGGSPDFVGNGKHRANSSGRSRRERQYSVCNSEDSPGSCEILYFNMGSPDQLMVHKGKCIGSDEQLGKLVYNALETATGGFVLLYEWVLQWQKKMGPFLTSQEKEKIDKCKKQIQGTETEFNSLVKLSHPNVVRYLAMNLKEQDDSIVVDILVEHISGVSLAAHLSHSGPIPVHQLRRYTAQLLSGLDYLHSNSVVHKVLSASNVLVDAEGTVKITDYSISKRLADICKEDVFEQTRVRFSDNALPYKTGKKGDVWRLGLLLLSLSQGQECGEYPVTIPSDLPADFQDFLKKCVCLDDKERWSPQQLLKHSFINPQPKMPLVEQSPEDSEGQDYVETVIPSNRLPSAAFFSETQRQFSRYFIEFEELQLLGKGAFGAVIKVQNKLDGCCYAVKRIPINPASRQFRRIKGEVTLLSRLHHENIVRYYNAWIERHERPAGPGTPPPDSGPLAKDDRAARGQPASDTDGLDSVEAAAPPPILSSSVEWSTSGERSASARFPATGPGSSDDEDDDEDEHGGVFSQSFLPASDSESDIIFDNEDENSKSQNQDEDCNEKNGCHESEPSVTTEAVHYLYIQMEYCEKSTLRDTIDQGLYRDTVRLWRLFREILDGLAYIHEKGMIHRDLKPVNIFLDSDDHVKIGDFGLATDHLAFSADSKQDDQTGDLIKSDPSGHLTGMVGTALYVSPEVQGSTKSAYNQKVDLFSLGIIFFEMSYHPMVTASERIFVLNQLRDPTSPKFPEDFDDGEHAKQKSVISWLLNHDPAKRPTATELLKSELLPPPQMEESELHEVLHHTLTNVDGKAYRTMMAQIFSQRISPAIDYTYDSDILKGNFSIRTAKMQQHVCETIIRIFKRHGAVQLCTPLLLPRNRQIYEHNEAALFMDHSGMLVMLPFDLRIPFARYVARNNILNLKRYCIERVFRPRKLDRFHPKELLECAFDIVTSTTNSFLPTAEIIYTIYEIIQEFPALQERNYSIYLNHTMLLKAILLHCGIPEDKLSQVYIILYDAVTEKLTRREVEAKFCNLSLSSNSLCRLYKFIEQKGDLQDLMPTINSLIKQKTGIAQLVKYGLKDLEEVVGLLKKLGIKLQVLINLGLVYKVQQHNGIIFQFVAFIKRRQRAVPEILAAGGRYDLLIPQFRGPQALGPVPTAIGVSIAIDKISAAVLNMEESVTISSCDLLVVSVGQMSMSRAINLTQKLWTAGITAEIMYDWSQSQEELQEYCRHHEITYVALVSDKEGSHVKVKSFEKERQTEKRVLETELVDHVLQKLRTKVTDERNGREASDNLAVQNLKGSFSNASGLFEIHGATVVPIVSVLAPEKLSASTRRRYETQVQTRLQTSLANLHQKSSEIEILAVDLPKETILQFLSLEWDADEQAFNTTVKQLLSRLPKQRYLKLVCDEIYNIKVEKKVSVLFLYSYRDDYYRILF

On to `N#Cc1cccc(S(=O)(=O)Nc2ccc(F)c(-c3ccc4c(-c5ncc[nH]5)n[nH]c4c3F)c2F)c1` [Example 2BQ, 3-cyano-N-(2,4-difluoro-3-(7-fluoro-3-(1H-imidazol-2-yl)-1H-indazol-6-yl)phenyl)-benzenesulfonamide], for which the IC50 (Table 8) is less than 500 nM. In turn, `COc1ncccc1S(=O)(=O)Nc1ccc(F)c(-c2ccc3c(C(=O)NCCCO)n[nH]c3c2F)c1F` [Example 3BI, 6-(2,6-difluoro-3-((2-methoxypyridine)-3-sulfonamido)phenyl)-7-fluoro-N-(3-hydroxypropyl)-1H-indazole-3-carboxamide] showed an IC50 (Table 9) of 500 to 2500 nM.

For `Cn1cc(Cl)cc(S(=O)(=O)Nc2ccc(F)c(-c3ccc4c(-c5ncc[nH]5)n[nH]c4c3F)c2F)c1=O` [Example 2AN, 5-chloro-N-(2,4-difluoro-3-(7-fluoro-3-(1H-imidazol-2-yl)-1H-indazol-6-yl)phenyl)-1-methyl-2-oxo-1,2-dihydro-pyridine-3-sulfonamide], the IC50 (Table 8) was less than 500 nM. Same read-out and setting: the value for `Cn1ncc(S(=O)(=O)Nc2ccc(F)c(-c3ccc4c(-c5ncc[nH]5)n[nH]c4c3F)c2F)n1` [Example 2Y, N-(2,4-difluoro-3-(7-fluoro-3-(1H-imidazol-2-yl)-1H-indazol-6-yl)phenyl)-2-methyl-2H-l,2,3-triazole-4-sulfonamide] was 2500 to 10000 nM. Regarding `COc1ncc(F)cc1S(=O)(=O)Nc1cccc(-c2ccc3c(C(=O)NCC[C@H](O)CO)n[nH]c3c2F)c1F` [Example 3BG, 6-(2-fluoro-3-((5-fluoro-2-methoxypyridine)-3-sulfonamido)phenyl)-N-((S)-3,4-dihydroxybutyl)-7-fluoro-1H-indazole-3-carboxamide], the IC50 (Table 9) is less than 500 nM. For the molecule `COc1ncc(Cl)cc1S(=O)(=O)Nc1ccc(F)c(-c2ccc3c(-c4ccn[nH]4)n[nH]c3c2F)c1F` [Example 2BZ, 5-chloro-N-(2,4-difluoro-3-(7-fluoro-3-(1H-pyrazol-5-yl)-1H-indazol-6-yl)phenyl)-2-methoxypyridine-3-sulfonamide], the IC50 (Table 8) is less than 500 nM. Molecule `COc1ncc(Cl)cc1S(=O)(=O)Nc1ccc(F)c(-c2ccc3c(C(=O)Nc4cnn(C(F)F)c4)n[nH]c3c2F)c1F` [Example 3CR, 6-(3-((5-chloro-2-methoxy-pyridine)-3-sulfonamido)-2,6-difluorophenyl)-N-(1-(difluoromethyl)-1H pyrazol-4-yl)-7-fluoro-1H-indazole-3-carboxamide] gave an IC50 (Table 9) of 500 to 2500 nM. `Cc1ncc(C#N)cc1S(=O)(=O)Nc1ccc(F)c(-c2ccc3c(-c4ncc[nH]4)n[nH]c3c2F)c1F` [Example 3I, 5-cyano-N-(2,4-difluoro-3-(7-fluoro-3-(1H-imidazol-2-yl)-1H-indazol-6-yl)phenyl)-2-methylpyridine-3-sulfonamide] had an IC50 (Table 9) of less than 500 nM. On the same count and under the same terms, under `COc1ncncc1S(=O)(=O)Nc1ccc(F)c(-c2ccc3c(C(=O)NCCCN(C)C)n[nH]c3c2F)c1F` [Example 3CM, 6-(2,6-difluoro-3-((4-methoxypyrimidine)-5-sulfonamido)phenyl)-N-(3-(dimethylamino)propyl)-7-fluoro-1H-indazole-3-carboxamide] stands greater than 10000 nM; under `COc1nc(C)c(Cl)cc1S(=O)(=O)Nc1ccc(F)c(-c2ccc3c(C(=O)NCCCO)n[nH]c3c2F)c1F` [Example 3DO, 6-(3-((5-chloro-2-methoxy-6-methylpyridine)-3-sulfon-amido)-2,6-difluorophenyl)-7-fluoro-N-(3-hydroxypropyl)-1H-indazole-3-carboxamide], less than 500 nM. Same read-out and setting: the value for `Cc1ncc(F)cc1S(=O)(=O)Nc1cc(F)cc(-c2ccc3c(C(N)=O)n[nH]c3c2F)c1F` [Example 3CG, 6-(2,5-difluoro-3-((5-fluoro-2-methylpyridine)-3-sulfon-amido)phenyl)-7-fluoro-1H-indazole-3-carboxamide] was less than 500 nM. In the case of `Cc1ccc(Cl)cc1S(=O)(=O)Nc1ccc(F)c(-c2ccc3c(-c4ncc[nH]4)n[nH]c3c2)c1F` [Example 2AW, N-(3-(3-(1H-imidazol-2-yl)-1H-indazol-6-yl)-2,4-difluorophenyl)-5-chloro-2-methylbenzenesulfonamide], the IC50 (Table 8) is less than 500 nM. `COc1ncc(Cl)cc1S(=O)(=O)Nc1c(F)ccc(-c2ccc3c(-c4ncc[nH]4)n[nH]c3c2F)c1F` [Example 3A, 5-chloro-N-(2,6-difluoro-3-(7-fluoro-3-(1H-imidazol-2-yl)-1H-indazol-6-yl)phenyl)-2-methoxypyridine-3-sulfonamide]: the IC50 (Table 9) was less than 500 nM. Still for that read-out and setting: the value for `COc1ncc(F)cc1S(=O)(=O)Nc1ncc(F)c(-c2ccc3c(-c4ncc[nH]4)n[nH]c3c2F)c1F` [Example 28, N-(3,5-Difluoro-4-(7-fluoro-3-(1H-imidazol-2-yl)-1H-indazol-6-yl)pyridin-2-yl)-5-fluoro-2-methoxypyridine-3-sulfonamide] was less than 500 nM; that for `COc1ncc(F)cc1S(=O)(=O)Nc1ccc(F)c(-c2ccc3c(C(=O)Nc4cnn(C)c4)n[nH]c3c2F)c1F` [Example 3Z, 6-(2,6-difluoro-3-((5-fluoro-2-methoxypyridine)-3-sulfonamido)phenyl)-7-fluoro-1H-(1-methyl-1H-pyrazol-4-yl)-1H-indazole-3-carboxamide] was less than 500 nM.

The molecule `COc1ncc(Cl)cc1S(=O)(=O)Nc1ccc(F)c(-c2ccc3c(-c4ncc[nH]4)n[nH]c3c2F)c1Cl` [Example 2T, 5-chloro-N-(2-chloro-4-fluoro-3-(7-fluoro-3-(1H-imidazol-2-yl)-1H-indazol-6-yl)phenyl)-2-methoxypyridine-3-sulfonamide] yielded an IC50 (Table 8) of less than 500 nM. Where the note is “Table 9”, `COc1ncccc1S(=O)(=O)Nc1nccc(-c2ccc3c(-c4ncc[nH]4)n[nH]c3c2F)c1C#N` [Example 3J, N-(3-cyano-4-(7-fluoro-3-(1H-imidazol-2-yl)-1H-indazol-6-yl)pyridin-2-yl)-2-methoxypyridine-3-sulfonamide] yielded an IC50 of 2500 to 10000 nM. For the setting “Table 9”, `COc1ncc(F)cc1S(=O)(=O)Nc1ccc(F)c(-c2ccc3c(C(=O)NCC(N)=O)n[nH]c3c2F)c1F` [Example 3AM, N-(2-amino-2-oxoethyl)-6-(2,6-difluoro-3-((5-fluoro-2-methoxypyridine)-3-sulfon-amido)phenyl)-7-fluoro-1H-indazole-3-carboxamide] displayed an IC50 of 500 to 2500 nM. `CC(C)c1ccc(S(=O)(=O)Nc2ccc(F)c(-c3ccc4c(-c5ncc[nH]5)n[nH]c4c3F)c2F)cc1` [Example 2G, N-(2,4-difluoro-3-(7-fluoro-3-(1H-imidazol-2-yl)-1H-indazol-6-yl)phenyl)-4-isopropyl-benzenesulfonamide]: the IC50 (Table 8) is greater than 10000 nM. `CNC(=O)c1n[nH]c2c(F)c(-c3c(F)ccc(NS(=O)(=O)c4cc(F)cnc4OC)c3F)ccc12` [Example 3S, 6-(2,6-difluoro-3-((5-fluoro-2-methoxypyridine)-3-sulfonamido)phenyl)-7-fluoro-N-methyl-1H-indazole-3-carboxamide] displayed an IC50 (Table 9) of less than 500 nM. Where the note is “Table 8”, `COc1ncc(Cl)cc1S(=O)(=O)Nc1ccc(F)c(-c2ccc3c(-c4ncc[nH]4)n[nH]c3c2)n1` [Example 2CA] gave an IC50 of 500 to 2500 nM. `Cc1ccc(S(=O)(=O)Nc2ccc(F)c(-c3ccc4c(C(N)=O)n[nH]c4c3F)c2F)c(C)n1` [Example 3DL, 6-(3-((2,6-dimethylpyridine)-3-sulfonamido)-2,6-difluoro-phenyl)-7-fluoro-1H-indazole-3-carboxamide]: the IC50 (Table 9) fell in the range of 500 to 2500 nM. Still for that read-out and setting: under `COc1ncc(F)cc1S(=O)(=O)Nc1cccc(-c2ccc3c(C(=O)NCC[C@@H](O)CO)n[nH]c3c2F)c1F` [Example 3BH, 6-(2-fluoro-3-((5-fluoro-2-methoxypyridine)-3-sulfonamido)phenyl)-N-((R)-3,4-dihydroxybutyl)-7-fluoro-1H-indazole-3-carboxamide] stands 500 to 2500 nM. For the setting “Table 9”, `O=S(=O)(Nc1ccc(F)c(-c2ccc3c(-c4ncc[nH]4)n[nH]c3c2F)c1F)c1cc(F)cc(CO)c1Cl` [Example 3CH, 2-chloro-N-(2,4-difluoro-3-(7-fluoro-3-(1H-imidazol-2-yl)-1H-indazol-6-yl)phenyl)-5-fluoro-3-(hydroxymethyl)-benzenesulfonamide] came in with an IC50 of less than 500 nM. Take `O=C(Nc1cnn(CCO)c1)c1n[nH]c2c(F)c(-c3c(F)ccc(NS(=O)(=O)c4cc(F)cc(CO)c4Cl)c3F)ccc12` [Example 4AC]: the IC50 (Table 9) is less than 500 nM. Take `COc1ncc(F)cc1S(=O)(=O)Nc1ccc(F)c(-c2ccc3c(-c4ncc[nH]4)n[nH]c3c2F)c1F` [Example 2V, 5-fluoro-N-(2,4-difluoro-3-(7-fluoro-3-(1H-imidazol-2-yl)-1H-indazol-6-yl)phenyl)-2-methoxy-pyridine-3-sulfonamide]: where the note is “Table 8”, the IC50 was less than 500 nM. In turn, `COc1ncc(CO)cc1S(=O)(=O)Nc1ccc(F)c(-c2ccc3c(C(=O)NCCCN(C)C)n[nH]c3c2F)c1F` [Example 3DB, 6-(2,6-difluoro-3-((5-(hydroxymethyl)-2-meth-oxypyridine)-3-sulfonamido)-phenyl)-N-(3-(dimethyl-amino)propyl)-7-fluoro-1H-indazole-3-carboxamide] showed an IC50 (Table 9) greater than 10000 nM. Still for that read-out and setting: the value for `COc1ncc(F)cc1S(=O)(=O)Nc1ccc(F)c(-c2ccc3c(C(=O)NCC[C@@H](O)CO)n[nH]c3c2F)c1F` [Example 3BF, 6-(2,6-difluoro-3-((5-fluoro-2-methoxypyridine)-3-sulfonamido)phenyl)-N-((R)-3,4-dihydroxybutyl)-7-fluoro-1H-indazole-3-carboxamide] was less than 500 nM. The molecule `O=S(=O)(Nc1ccc(F)c(-c2ccc3c(-c4ncc[nH]4)n[nH]c3c2F)c1F)c1cccc(Cl)c1F` [Example 2BB, 3-chloro-N-(2,4-difluoro-3-(7-fluoro-3-(1H-imidazol-2-yl)-1H-indazol-6-yl)phenyl)-2-fluorobenzenesulfonamide] gave an IC50 (Table 8) of less than 500 nM. Regarding `Cc1n[nH]c2cc(-c3c(F)ccc(NS(=O)(=O)c4cc(F)ccc4F)c3F)ccc12` [Example 2CC, N-(2,4-difluoro-3-(3-methyl-1H-indazol-6-yl)phenyl)-2,5-difluorobenzenesulfonamide], the IC50 (Table 8) was in the range of 2500 to 10000 nM. On to `Cc1c(CO)cc(F)cc1S(=O)(=O)Nc1ccc(F)c(-c2ccc3c(-c4ncc[nH]4)n[nH]c3c2F)c1F` [Example 32, N-(2,4-Difluoro-3-(7-fluoro-3-(1H-imidazol-2-yl)-1H-indazol-6-yl)phenyl)-5-fluoro-3-(hydroxymethyl)-2-methylbenzenesulfonamide], for which, under “Table 9”, the IC50 was less than 500 nM.
